From patent publication US20080299086A1, “Cultured muscle cells with high metabolic activity and method for production of the cultured muscle cells” (TOHOKU UNIVERSITY, priority 2006, published 2008) come the findings set out here.

Experiment [1] deals with recombinant GLUT4 (myc-GLUT4-ECFP) in C2C12 myotube cells. In words: Measurement of GLUT4 membrane-translocation activity by anti-myc antibody uptake, western blot analysis. The experiment is classed as cell-based, mouse. Particulars: insulin 100 nM, 60 minutes. The procedure:
The C2C12 myotube cells expressing a recombinant GLUT4, prepared according to Preparation Example 3, were stimulated by insulin with a final concentration of 100 nM for 60 minutes. After 30 minutes from the start of insulin stimulation, an anti-myc-monoclonal antibody with a final concentration of 4 μg/ml was supplemented in a culture medium. After insulin stimulation, the cells were washed 5 times with PBS (−) to remove anti-myc antibodies that were present on the cell membrane, and subsequently, a cell extract was prepared using Laemmli's buffer. The cell extract was used for 12.5% SDS-PAGE, and western blot analysis using an anti-mice-IgG antibody bound to horseradish peroxidase was carried out. Moreover, detection was carried out using a west super femto detection kit (Pierce Biotechnology Inc.).
In general terms: Immunoblotting shows a protein as a band on a membrane.

Experiment [2] concerns myc-GLUT4-ECFP in C2C12 myotube cells. Kind of experiment: Immunostaining of myc on the membrane, confocal microscope (membrane translocation of GLUT4). The experiment is classed as cell-based, mouse. The note with it: insulin 100 nM, 60 minutes; FIG. 13. The procedure: The C2C12 myotube cells (differentiation-type culture myotube cell) expressing a myc-GLUT4-ECFP, prepared according to Preparation Example 3, were stimulated by insulin with a final concentration of 100 nM for 60 minutes. After being washed 3 times with PBS (−), they were fixed by being shaken in PBS (−) supplemented with 2% paraformaldehyde for 15 minutes. After being washed 3 times×10 minutes with PBS (−), they were blocked by being shaken in PBS (−) supplemented with 5% bovine serum for 1 hour. Next, they were shaken for 1 hour using an anti-myc-monoclonal antibody diluted 200-fold with PBS (−) supplemented with 1% bovine serum albumin as a primary antibody. After being washed 5 times×10 minutes with PBS (−), they were shaken for 1 hour using an anti-mice-IgG antibody (The Jackson Laboratory) bound to rhodamine that was diluted 2000-fold with PBS (−) supplemented with 1% bovine serum albumin as a secondary antibody. Subsequently, the glass cover was removed, and they were placed on a glass slide on which Vecta Shield was dropped, and rhodamine and expression of ECFP were observed under a confocal microscope.

insulin: in experiment [1] (FIG. 14A), the “amount of the anti-myc antibody incorporated into the cells” value is “significantly increased”. Also, the “GLUT4 activity increase by insulin (quantified western blot)” value in experiment [1] (anti-myc antibody 4 μg/ml, FIG. 14C) is recorded as “approximately 3 fold”. In experiment [2], the “membrane translocation of GLUT4 (myc on the membrane)” value is on record as “GLUT4 was translocated on the membrane”.
